From US8691183B2, “Means for the detection and treatment of prostate cells” (Eberhard-Karls-Universitaet Tuebingen Universitaetsklinikum, priority 2008, dated 2014)
Entries after “also recorded” stand apart in the source; their conditions may differ.

Legend:
[1] = system: PC-3 prostate carcinoma cells; assay: Confocal laser scanning microscopy (CLSM) of cellular uptake; type: cell-based, human; details: 20 minutes incubation
Method: (§1) The cells were grown to 80% confluency at 37° C., 5% CO2 (vol/vol) in 4-well plates (NUNC, Wiesbaden, Germany) with about 300,000 cells per well.
(§2) U373 human glioma cells, human prostate carcinoma cells PC3 and LNCaP, human Jurkat lymphoma cells, and human colon carcinoma cells Colo205 were grown in RPMI1640 ready mix medium containing L-glutamine and 10% fetal bovine serum (FBS)-gold (PAA Laboratories, Pasching, Austria). U2OS human osteosarcoma cells and HeLa human cervix carcinoma cells were grown in high glucose Dulbeccos modified Eagle's medium containing GlutaMax™ and pyrovate and 10% FBS-gold. Healthy human prostate cells (CC2555, Lonza, Verviers, Belgium) were cultivated in prostate endothelial cell growth medium (PrEGM, Lonza, Verviers, Belgium).
(§3) The compounds 1, 2 and 4 were dissolved at 1 mg/ml in pure ethanol (Riedel de Haen, Sigma-Aldrich, Taufkirchen, Germany) and then diluted in the appropriate medium for the cells to 10 μg/ml of conjugate and 1% ethanol. The cells were incubated at 37° C. in an atmosphere of 5% CO2 for 20 minutes with the compounds. After this, the cells were rinsed three times with medium and then incubated with medium again. This experiment was also performed with free sulforhodamine B with a corresponding amount.
The compound 10 was dissolved in culture medium (260 μM). Lys(FITC)-aminobourgeonal (compound 7) was dissolved in culture medium with 1% ethanol (260 μM). The cells were incubated for 20 minutes (compound 10) and for 2 days (compounds 7 and 10). This assay was also performed with free FITC. After the incubation the cells were rinsed three times with medium and again incubated in medium. Propidium iodide (PI) (molecular probes, Eugene, Oreg., USA) was added to stain death cells.
(§4) The confocal laser scanning microscopy was performed on an inverted LSM510 laser scanning microscope (Carl Zeiss) (objective: LD Achroplan 40×0.6, Plan Neofluar 20×0.50, 40×0.75). For the rhodamine fluorescence excitation the 543 nm beam of a helium-neon laser with suitable beam splitters and barrier filters were used. […]

[2] = system: LNCaP prostate carcinoma cells; assay: as above; type: cell-based, human; details: 20 minutes incubation, 10 μg/ml
Method: as §1, §2, §3
(§5) The confocal laser scanning microscopy was performed on an inverted LSM510 laser scanning microscope (Carl Zeiss) (objective: LD Achroplan 40×0.6, Plan Neofluar 20×0.50, 40×0.75). For the rhodamine fluorescence excitation the 543 nm beam of a helium-neon laser with suitable beam splitters and barrier filters were used. All measures were performed at least three times on living, non-fixed cells.

[3] = system: non-prostate tumor cell lines (colo 205 colon carcinoma, U373 glioma, U2OS osteosarcoma, HeLa cervix carcinoma, jurkat lymphoma); assay: as above; type: cell-based, human; details: all other (non-prostate) tumor cells; 20 minutes incubation; 10 μg/ml
Method: as §1, §2, §3, §5

nude mice organs = assay: CLSM of frozen sections of nude mice organs after intraperitoneal injection; type: in vivo, nude mouse; details: 90 minutes after intraperitoneal injection
Method: (§6) PC3 and LNCaP prostate tumor cells were grown to 80% confluency, detached with Accutase™ (PAA Laboratories, Pasching, Austria) and then harvested. The cells were washed with PBS three times and then drawn up into a 30 g Micro-Fine™ insulin syringe (Becton Dickinson, Franklin Lakes, N.J., USA). Approximately 5×10^5 cells per mouse were injected into the right thigh of a male CD1 Nu/Nu mouse (Charles River, WIGA, Sulzfeld, Germany). The tumor growth was monitored and after 10 to 14 days mice bearing tumors with 2-3 mm in diameter were treated with the conjugate. 1.5 mg of the compound 1 were dissolved in 300 μl PBS containing 20% ethanol and applied intraperitoneally. After 90 minutes of circulation the mice were sacrificed and subsequently the tumors and organs were removed, embedded in Jung tissue freezing medium (Leica Instruments, Nussloch, Germany) and frozen in liquid nitrogen. Frozen sections (5 μm thickness) were prepared (LD3000 Cryotom, Leica Biosystems GmbH, Nussloch, Germany) and the rhodamine staining was analyzed by confocal laser scanning
(§7) The experiments were repeated two times.

[4] = Tolerability in the animals; type: in vivo; details: intraperitoneal injection, nude mice
PC3 prostate carcinoma = assay: Touch prints of the tumor after intraperitoneal injection; type: in vivo, nude mouse; details: 20 minutes after intraperitoneal injection; no fixation
Method: For touch prints, the tumor of a mouse treated with the rhodamine containing compound 1 (1.5 mg intraperitoneally for 20 minutes) was excised. The tumor was cut and the cells were streaked onto a slide without fixation. The tumor cells were immediately analyzed by CLSM (without fixation).
as §7

[5] = system: healthy human epithelial prostate cells (CC2555); assay: Confocal laser scanning microscopy (CLSM) of cellular uptake; type: cell-based; details: 20 minutes incubation, 10 μg/ml
Method: as §1, §2
The compounds 1, 2 and 4 were dissolved at 1 mg/ml in pure ethanol (Riedel de Haen, Sigma-Aldrich, Taufkirchen, Germany) and then diluted in the appropriate medium for the cells to 10 μg/ml of conjugate and 1% ethanol. The cells were incubated at 37° C. in an atmosphere of 5% CO2 for 20 minutes with the compounds. […]
as §4

[6] = system: human prostate carcinoma (PC3) implanted into nude mice; assay: CLSM of frozen sections of implanted tumor after intraperitoneal injection; type: in vivo, nude mouse
Method: as §6
To evaluate the in- and efflux of the rhodamine conjugated compound 1, the experiment was repeated with circulation times of 20 minutes and 180 minutes.
as §7

[7] = system: human PC3 prostate carcinoma in the right thigh of a nude mouse; assay: Magnetic resonance tomography of nude mouse with implanted tumor; type: in vivo; details: 90 minutes after intravenous administration
Method: as §6, with “After 90 minutes of circulation the mice were sacrificed and subsequently the tumors and organs were removed, embedded in Jung tissue freezing medium (Leica Instruments, Nussloch, Germany) and frozen in liquid nitrogen.” left out
The magnetic resonance tomography (MRT) measurements were performed using a clinical 3-Tesla Siemens whole body MRT (Magnetom TRIO; Siemens, Erlangen, Germany) with the mice in prone position in a standard circular polarized wrist coil. The MRT protocol consisted of native and post-contrast T1 weighted axial images: slice thickness 2 mm, field of view read: 60 mm/7.5%, Voxel size: 0.2×0.2×2 mm, repetition time (TR): 800 ms, echo time (TE): 9.1 ms, flip angle: 90°, acquisitions: tions: 2, number of slices: 25, distance factor: 0, scan time 06:02 min. […]

[8] = system: healthy prostate cells (CC2555); assay: Fluorescence activated cell sorting (FACS) of cellular uptake; type: cell-based, human; details: 20 minutes incubation, 130 μM
Method: (§8) For the fluorescence activated cell sorting (FACS), cells were grown in 75 cm^2 culture flasks (Corning Costar, Bodenheim, Germany) (80% confluency) under the same conditions as described for the confocal laser scanning microscopy. Accutase™ (PAA Laboratories, Pasching, Austria) was added to achieve detachment of the cells, which were harvested and subsequently alequoted into Eppendorf tubes (Eppendorf, Hamburg, Germany) (1×10^6 cells per tube). The cells were incubated for 20 minutes with the compounds 1, 2 and 4 (10 μg/ml in the appropriate medium with 1% ethanol) and the compound 10 (130 μM in the appropriate medium).
(§9) Afterwards, the cells were washed three times in PBS and centrifuged at 800 rpm for 5 minutes. Then 300 μl FACS buffer (D-PBS containing 1% parafomaldehyde) were added. The samples were measured immediately. Approximately 20,000 events were recorded per sample. The fluorescence excitation was achieved by an argon laser (488 nm). The fluorescence was detected using a 580-610 and a 560-680 nm band-pass filter. All investigations were performed in triplicate.
(§10) Mean rhodamine and fluorescein isothiocyanate fluorescence values of the samples were acquired using the WinMDI software (Joseph Trotter, Scripps Research Institute, San Diego, Calif., USA) and then statistically evaluated.

[9] = system: LNCaP prostate carcinoma cells; assay: as above; type: cell-based, human; details: 20 minutes incubation, 130 μM
Method: as §8, §9, §10

[10] = system: PC-3 prostate carcinoma cells; assay: as above; type: cell-based, human; details: PC-3; 20 minutes incubation; 130 μM
Method: as §8, §9, §10

[11] = system: non-prostate tumor cell lines; assay: as above; type: cell-based, human; details: non-prostate tumor cell lines; 20 minutes incubation; 130 μM
Method: as §8, §9, §10

[12] = system: osteosarcoma cells (U2OS); assay: Confocal laser scanning microscopy (CLSM) of cellular uptake; type: cell-based, human; details: 20 minutes incubation, 260 μM
Method: as §1, §2
The compound 10 was dissolved in culture medium (260 μM). Lys(FITC)-aminobourgeonal (compound 7) was dissolved in culture medium with 1% ethanol (260 μM). The cells were incubated for 20 minutes (compound 10) and for 2 days (compounds 7 and 10). This assay was also performed with free FITC. […]
as §4

[13] = system: healthy prostate cells (CC2555); assay: In-vitro MRT / MR relaxometry of cells in Eppendorf tubes; type: cell-based, human; details: rank among cell lines
Method: (§11) For the MR relaxometry, all tumor cell lines were grown in 75 cm^2 culture flasks (Corning Costar, Bodenheim, Germany) (70% confluency). Accutase™ (PAA Laboratories, Pasching, Austria) was added to achieve detachment of the cells, which were harvested and subsequently aliquoted into Eppendorf tubes (6×10^6 cells per tube). The cells in the tubes were incubated with the DOTA-containing compounds (130 μM). After a 20 minutes incubation period at 37° C. in an atmosphere of 5% CO2, the cells were washed three times in PBS and centrifuged at 800 rpm for 5 minutes.
(§12) The in-vitro MRT was performed with a 3 Tesla-whole body MRT system (Magnetom TRIO, circular polarized wrist coil, Siemens, Erlangen, Germany)
(§13) Sagittal T1-weighted MR images were obtained using the following spin-echo sequence:
(§14) Repetition time (TR): 200 ms, echo time (TE): 7,4 ms, flip angle: 90°, averages: 1, concatenations: 2, measurements: 1, number of slices: 19, distance factor: 30%, slice thickness: 3 mm, field of view read: 180 mm/100%, resolution: 256/100%, voxel size: 0.7×0.7×3.0 mm, scan time: 1:48 min.
(§15) The T1 relaxation times were evaluated from signal intensities obtained by multiple spin-echo measurements:
(§16) Repetition time (TR): 20-8000 ms (50 different TR values), echo time (TE): 6.4 ms, flip angle: 90°, averages: 1, measurements: 1, number of slices: 1, slice thickness: 1 mm, field of view read: 120 mm/87.5%, resolution: 128/100%, voxel size: 0.9×0.9×1 mm.
(§17) The analysis and calculations were performed using a Matlab program (Math Works, Natick, Mass., USA). The T1 values were approximated by a three-parameter fit procedure. All signal curves were examined and found to be monoexponential. The investigations were performed in triplicate.

[14] = system: other tumor cell lines (non-prostate); assay: as above; type: cell-based, human; details: other carcinoma cells; incubation, washed three times with PBS
Method: as §11, §12, §13, §14, §15, §16, §17

[15] = system: LNCaP prostate carcinoma cells; assay: as above; type: cell-based, human
Method: as §11, §12, §13, §14, §15, §16, §17

[16] = system: PC-3 prostate carcinoma cells; assay: as above; type: cell-based, human; details: rank among cell lines
Method: as §11, §12, §13, §14, §15, §16, §17

In the case of `CCN(CC)c1ccc2c(-c3ccc(S(=O)(=O)NCCCCCCCCCCC=O)cc3S(=O)(=O)O)c3ccc(=[N+](CC)CC)cc-3oc2c1` [compound 1, sulforhodamine-sulfonamido-aminoundecylic aldehyde], the “uptake into the cells (rhodamine staining, CLSM)” value ([1]; 10 μg/ml) is reported as “take up the compound according to the invention into the cytoplasm”, the “uptake into the cells (rhodamine staining, CLSM)” value [2] is reported as “take up the compound according to the invention into the cytoplasm” and the “uptake into the cells (rhodamine staining, CLSM)” value [3] is reported as “do not take up the compound according to the invention”. The “staining of healthy prostate tissue of the mouse” value (nude mice organs) was “almost no staining”, the tolerability [4] was “very well tolerated by the animals” and the “compound in tumor cells of touch prints” value (PC3 prostate carcinoma) was “reached the cytoplasm of the prostate carcinoma cells”. For the same molecule, the “uptake into the cells (rhodamine staining, CLSM)” value [5] was “take up the compound according to the invention into the cytoplasm”, the “absorption into the cytoplasm of the prostate carcinoma cells” value ([6]; 20 minutes after intraperitoneal injection) was “very well absorbed” and the “rhodamine fluorescence of the prostate carcinoma in frozen sections” value ([6]; 90 minutes after intraperitoneal injection, in comparison to lymph nodes and lung) was “significantly stronger red fluorescence”. The “compound in the cytoplasm of the prostate carcinoma cells” value ([6]; 180 minutes after intraperitoneal injection) was “efflux of the compound out of the cytoplasm”.
In the case of `O=CCCCCCCCCCCNC(=O)C(CCCCN=S=C=Nc1ccc2c(c1)C(=O)OC21c2ccc(O)cc2Oc2cc(O)ccc21)NC(=O)C[N+]12CC[N+]3(CC(=O)O)CCN(CC(=O)O)CC[N+](CC(=O)O)(CC1)[Gd]32` (stereo not drawn) [compound 10, Gd-DOTA-Lys(FITC) aminoundecylic aldehyde], the “uptake into the cells (FITC staining, CLSM)” value ([1]; 260 μM) is reported as “very well uptaken into the cytoplasm”, the “MRT staining of non-prostate carcinoma cells” value [7] is reported as “remain unstained” and the “MRT signal of the prostate carcinoma cells” value ([7]; 10 days after implantation) is reported as “increased signal intensity”. The “staining (FITC fluorescence, FACS)” value [8] was “stained”, the “staining (FITC fluorescence, FACS)” value [9] was “stained” and the “staining (FITC fluorescence, FACS)” value [10] was “stained”. The “staining (FITC fluorescence, FACS)” value [11] was “not the non-prostate tumor cell lines”, the “uptake into the cells (FITC staining, CLSM)” value [12] was “not into the osteosarcoma cells” and the “difference of the T1-time (before minus after the incubation)” value [13] was “strongest reduction of the T1-time”. The “signal intensity of the cells in T1-weighted MRT images” value [14] was “only with the LNCaP-prostate carcinoma cells”, the “uptake / signal intensity of the cells in T1-weighted MRT images” value ([15]; LNCaP, 20 minutes incubation, washed, 130 μM) was “uptaken into the cytoplasm of the prostate carcinoma cells; also recorded: increase of the signal intensity” and the “difference of the T1-time (before minus after the incubation)” value ([15]; LNCaP, rank among cell lines) was “strongest reduction of the T1-time”. For the same molecule, the “T1-time reduction in comparison to simple Gd-DOTA” value ([15]; prostate carcinoma cells (LNCaP)) was “significantly stronger T1-time reduction” and the “difference of the T1-time (before minus after the incubation)” value [16] was “strongest reduction of the T1-time”.
